Common to all, as to test: growth of human tumour cells (NCI), 48 h
For experiment [1], the system named is ACHN renal.
In experiment [2] the test system is OVCAR-8 ovarian.
Experiment [3] has as its system DU-145 prostate.
Experiment [4] concerns SNB-75 CNS.
For experiment [5], the system named is HS 578T breast.
Experiment [6] relates to SK-OV-3 ovarian.
Experiment [7] has as its system M14 melanoma.
Experiment [8] relates to KM12 colon.
The test system of experiment [9] is K-562 leukemia.

Molecules are shown by their SMILES.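 Step 1: Grow cells in 96-well plates. Step 2: Expose to compound for 48 hours at 5 concentrations. Step 3: Interpolate endpoints linearly; if unreached, use highest concentration. GI50 = concentration required for 50% inhibition of growth. TGI: concentration producing complete growth inhibition.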

As to `COC(=O)c1cc(C#Cc2cc(OC)ccc2OC)ccc1OC`, the TGI in experiment [1], in experiment [2], in [3], in experiment [4], in experiment [5] and in experiment [6] was more than 100 µM in each case. In addition, the TGI in experiment [7], in experiment [8] and in [9] was more than 100 µM each time. In experiment [3], the GI50 is 43.6 µM.

Take `Cc1cccc2c1NC(=S)[C@@H]1CCCN1C2=O`: the TGI in experiment [1], in experiment [2], in [3], in [4], in experiment [5] and in experiment [6] was more than 100 µM each time. The TGI in [7], in [8] and in experiment [9] was more than 100 µM throughout.

With `CCCCOC(=O)C(O)Cc1ccoc1` (configuration not stated), the TGI in experiment [1], in [2], in experiment [3], in experiment [4], in [5] and in [6] was more than 100 µM in each case. Further, the TGI in experiment [7], in [8] and in [9] was more than 100 µM each time.

In the case of `CCC(CCCC[C@@H]1CC[C@H]2CC(=O)C[C@@H]12)OC` (some centres not stated), the TGI in [1], in [2], in [3], in experiment [4], in experiment [5] and in [6] was more than 100 µM each time. In addition, the TGI in experiment [7], in experiment [8] and in [9] was more than 100 µM throughout.

Take `CSc1ccc(/C=C2\N=C(c3ccccc3)N(c3nc4ccc(Sc5ccccc5)cc4[nH]3)C2=O)cc1`: the TGI in [1] is more than 100 µM; in experiment [2] it was more than 87.4 µM; in experiment [3], 70.7 µM; in [4] it was 45.6 µM; in experiment [5], 58.1 µM; in [6] it was 60.8 µM. Besides, the TGI came out at 32.5 µM in experiment [7], 52 µM in experiment [8] and 66.4 µM in [9].

On to `S=c1[nH]c(=S)c2cc(Sc3ccc4[nH]c(=S)[nH]c(=S)c4c3)ccc2[nH]1`, for which the TGI was more than 100 µM in [1]; 48.1 µM in [2]; more than 100 µM in experiment [3]; 42.6 µM in [4]; 56.1 µM in [5]; 60 µM in [6]. Also, the TGI is more than 100 µM in [7], 62.5 µM in [8] and more than 100 µM in [9].

On to `CN(C)Cc1cc(N=Nc2ccccc2)cc(CN(C)C)c1O`, for which the TGI in experiment [1], in [2], in experiment [3], in experiment [4], in [5] and in experiment [6] was more than 100 µM in each case. For the same compound, the TGI in experiment [7], in [8] and in experiment [9] was more than 100 µM each time.

Take `COc1cc(COC(=O)N2CCC2C(=O)O)c([N+](=O)[O-])cc1OC` (configuration not stated): the TGI in experiment [1], in experiment [2], in [3], in experiment [4], in experiment [5] and in experiment [6] was more than 100 µM throughout. Further, the TGI in experiment [7], in experiment [8] and in [9] was more than 100 µM each time.

In the case of `Cc1ccc2c(n1)C(=O)c1ccccc1C2=O`, the TGI is more than 100 µM in experiment [1]; 74.8 µM in [2]; 36.4 µM in experiment [3]; 92.4 µM in experiment [4]; more than 100 µM in [5]; more than 100 µM in [6]. For the same compound, the TGI was more than 75.5 µM in experiment [7], more than 100 µM in [8] and more than 84 µM in experiment [9].

As to `COc1cc2c(cc1OC)CC(N=[N+]=[N-])c1cc(OC)c(OC)cc1/C=C\2` (configuration not stated), the TGI was more than 100 µM in [1]; 55.8 µM in experiment [2]; more than 100 µM in experiment [3]; more than 100 µM in [4]; more than 100 µM in [5]; more than 100 µM in experiment [6]. The TGI in [7], in experiment [8] and in [9] was more than 100 µM throughout.

On to `COC(=O)c1c(C)cccc1CC1Cc2c(C)cccc2C1=O` (configuration not stated), for which the TGI in experiment [1], in [2], in [3], in [4], in experiment [5] and in experiment [6] was more than 100 µM each time. Further, the TGI in [7] is more than 100 µM; in experiment [8] it was 73.2 µM; in experiment [9] it was more than 100 µM.

Regarding `O=C(N/N=C\c1ccc2ccccc2c1)Nc1ccc([N+](=O)[O-])cc1`, the TGI in [1] is more than 63.8 µM; in [2], more than 66.1 µM; in experiment [3] it was more than 65 µM; in experiment [4], more than 100 µM; in experiment [5], more than 100 µM; in [6], more than 59.8 µM. Besides, the TGI in [7] was more than 95.8 µM; in experiment [8], more than 100 µM; in experiment [9] it was more than 100 µM.

On to `COc1ccc2c(c1)c1c(n2CCN2CCCCC2)-c2ccccc2CC1`, for which the TGI in [1] is 33.3 µM; in [2] it was 29 µM; in experiment [3], more than 100 µM; in [4], 35.1 µM; in [5], 28.5 µM; in experiment [6], 40.9 µM. Moreover, the values for the TGI in [7], in [8] and in experiment [9] were 28.7 µM, 27.3 µM and 45.9 µM, respectively.

With `N#CC1(C#N)NC(c2ccsc2)C(C#N)(C#N)NC1c1ccsc1` (configuration not stated), the TGI in experiment [1], in experiment [2], in experiment [3], in experiment [4], in experiment [5] and in experiment [6] was more than 100 µM in each case. Besides, the TGI in [7], in [8] and in [9] was more than 100 µM in each case.
